Ten compounds from ChEMBL document CHEMBL1151447, “Complex class 1 integrons with diverse variable regions, including aac(6')-Ib-cr, and a novel allele, qnrB10, associated with ISCR1 in clinical enterobacterial isolates from Argentina” (2007) can be followed below.

What all share (assay type): functional
The test system of one test is Enterobacter cloacae. Put plainly: Antimicrobial activity against multidrug-resistant Enterobacter cloacae E705 bearing qnrB10 gene with aac(6)-IId-aadA1a integron in presence of IPTG.
Test [1] relates to Escherichia coli. Put plainly: Antimicrobial activity against Escherichia coli DH10B in presence of IPTG. To be noted: K-12 substr. DH10B.
Test [2] deals with Escherichia coli. Kind of test: Antimicrobial activity against multidrug-resistant Escherichia coli M7943-TC2 bearing qnrB10 gene with aac(6)-Ib-cr-blaOXA-30 catB3-arr-3 integron in presence of IPTG.
Test [3] relates to Escherichia coli. Put plainly: Antimicrobial activity against Escherichia coli DH10B expressing pCRQB10 in presence of IPTG. The following applies: K-12 substr. DH10B.
In another test the test system is Klebsiella pneumoniae. Put plainly: Antimicrobial activity against multidrug-resistant Klebsiella pneumoniae M7943 bearing qnrB10 gene with aac(6)-Ib-cr-blaOXA-30 catB3-arr-3 integron in presence of IPTG.
Test [4] deals with Escherichia coli. Kind of test: Antimicrobial activity against Escherichia coli J53-AzR in presence of IPTG.
The subject of test [5] is Escherichia coli. Put plainly: Antimicrobial activity against Escherichia coli DH10B expressing pCR2.1 in presence of IPTG. The following applies: K-12 substr. DH10B.

By MIC is commonly meant the least concentration at which growth counts as inhibited. `CCn1cc(C(=O)O)c(=O)c2cc(F)c(N3CCNCC3)cc21` [NORFLOXACIN]: the MIC in the test with Enterobacter cloacae was not below 64 µg/mL; in the test with Escherichia coli [1] it was 0.008 µg/mL; in the test on Escherichia coli [2], 2 µg/mL; in the test on Escherichia coli [3], 0.125 µg/mL; in the test with Klebsiella pneumoniae it was 32 µg/mL; in the test on Escherichia coli [4], 0.03 µg/mL. In the test with Escherichia coli [5], the minimal inhibitory concentration (MIC) is 0.008 µg/mL.

Consider `C[C@H]1COc2c(N3CCN(C)CC3)c(F)cc3c(=O)c(C(=O)O)cn1c23.C[C@H]1COc2c(N3CCN(C)CC3)c(F)cc3c(=O)c(C(=O)O)cn1c23.O` [LEVOFLOXACIN], for which the MIC with Enterobacter cloacae was not below 64 µg/mL; in the test with Escherichia coli [1], 0.004 µg/mL; in the test with Klebsiella pneumoniae it was 4 µg/mL; in the test on Escherichia coli [5], 0.004 µg/mL.

On to `NC[C@H]1O[C@H](O[C@H]2[C@H](O)[C@@H](O[C@H]3O[C@H](CO)[C@@H](O)[C@H](N)[C@H]3O)[C@H](N)C[C@@H]2N)[C@H](O)[C@@H](O)[C@@H]1O` [KANAMYCIN], for which the MIC in the test with Enterobacter cloacae is not below 256 µg/mL; in the test on Escherichia coli [1], 1 µg/mL; in the test with Escherichia coli [2], 64 µg/mL; in the test with Escherichia coli [3], not below 256 µg/mL; with Klebsiella pneumoniae it was 128 µg/mL; in the test with Escherichia coli [4], 2 µg/mL. In the test with Escherichia coli [5], the MIC was not below 256 µg/mL.

With `NCC[C@H](O)C(=O)N[C@@H]1C[C@H](N)[C@@H](O[C@H]2O[C@H](CN)[C@@H](O)[C@H](O)[C@H]2O)[C@H](O)[C@H]1O[C@H]1O[C@H](CO)[C@@H](O)[C@H](N)[C@H]1O` [AMIKACIN], the MIC was determined as 8 µg/mL with Enterobacter cloacae; 1 µg/mL with Escherichia coli [1]; 4 µg/mL in the test on Escherichia coli [2]; 2 µg/mL in the test on Escherichia coli [3]; 16 µg/mL with Klebsiella pneumoniae; 0.5 µg/mL in the test with Escherichia coli [4]. Besides, the MIC in the test on Escherichia coli [5] was determined as 2 µg/mL.

For `O=C(O)c1cn(C2CC2)c2cc(N3CCNCC3)c(F)cc2c1=O` [CIPROFLOXACIN], in the test on Klebsiella pneumoniae, the MIC is 32 µg/mL.

For `CC1COc2c(N3CCN(C)CC3)c(F)cc3c(=O)c(C(=O)O)cn1c23` (stereo unspecified) [OFLOXACIN], the MIC in the test on Enterobacter cloacae was not below 64 µg/mL; with Escherichia coli [1], 0.004 µg/mL; with Klebsiella pneumoniae, 8 µg/mL; in the test on Escherichia coli [5], 0.004 µg/mL.

As for `NC[C@H]1O[C@H](O[C@H]2[C@H](O)[C@@H](O[C@H]3O[C@H](CO)[C@@H](O)[C@H](N)[C@H]3O)[C@H](N)C[C@@H]2N)[C@H](N)C[C@@H]1O` [TOBRAMYCIN], the MIC in the test on Enterobacter cloacae turned out to be 32 µg/mL; with Escherichia coli [1] it was 0.25 µg/mL; with Escherichia coli [2] it was 16 µg/mL; in the test with Escherichia coli [3], 0.25 µg/mL; in the test on Klebsiella pneumoniae, 16 µg/mL; with Escherichia coli [4], 0.25 µg/mL. In addition, in the test on Escherichia coli [5], the MIC was 0.25 µg/mL.

With `COc1c(N2C[C@@H]3CCCN[C@@H]3C2)c(F)cc2c(=O)c(C(=O)O)cn(C3CC3)c12` [MOXIFLOXACIN], the MIC with Escherichia coli [1] was determined as 0.004 µg/mL; in the test on Escherichia coli [2] it was 1 µg/mL; with Escherichia coli [3], 0.125 µg/mL; in the test with Klebsiella pneumoniae it was 8 µg/mL; with Escherichia coli [5], 0.004 µg/mL.

With `COc1c(N2CCNC(C)C2)c(F)cc2c(=O)c(C(=O)O)cn(C3CC3)c12` (stereo unspecified) [GATIFLOXACIN], the MIC turned out to be 32 µg/mL with Enterobacter cloacae; 0.004 µg/mL with Escherichia coli [1]; 0.5 µg/mL in the test with Escherichia coli [2]; 0.06 µg/mL with Escherichia coli [3]; 4 µg/mL in the test with Klebsiella pneumoniae; 0.03 µg/mL with Escherichia coli [4]. In addition, the MIC with Escherichia coli [5] was 0.004 µg/mL.

For the compound `CCn1cc(C(=O)O)c(=O)c2ccc(C)nc21` [NALIDIXIC ACID], the minimal inhibitory concentration (MIC) is not below 256 µg/mL with Enterobacter cloacae; 2 µg/mL in the test on Escherichia coli [1]; 16 µg/mL in the test on Escherichia coli [2]; 8 µg/mL with Escherichia coli [3]; 128 µg/mL in the test with Klebsiella pneumoniae; 4 µg/mL with Escherichia coli [4]. The MIC with Escherichia coli [5] is 2 µg/mL.
